Source: patent US20110223221A1, “STABILIZATION PROCESSES OF CATION RADICALS OF PHENOTHIAZINIC COMPOUNDS, COSMECEUTICAL FORMULATIONS AND METHODS FOR SKIN DISEASES AND DISTURBANCES PREVENTION” (priority 2008, published 2011)

Columns and labels:
[1] = UV light transmittance in a quartz plate (Australian Method); type: physicochemical; conditions: solution of 2.0 mg/cm^2 in a quartz plate, 320 to 360 nm
Protocol: In order to analyze the transmittance of UV light in the wavelength of 320 to 360 nm, solutions of 2.0 mg/cm^2 of the phenothiazines TR, TFP and FP were used in a quartz plate.
As it can be observed, in these conditions, TR, TFP and FP block the passage of almost 100% of UV light incidence (FIG. 1). This evaluation was obtained based on the Australian Method (Perassinoto, N. L., Journal In Comesto, VII Ed., 2006), which was elected the most adequate, because it considers the ε of UVA region of absorption. The other methods are based in the 320 and 360 nm absorption ratio and can generate false negative results. According to the Australian Method, it will be a good sunscreen the compound that blocks 90% of UVA light incidence. In the case of the said cation radicals of the phenothiazines of the present invention, the blockage was of 99.99%.
A solution of 2.0 mg of drug/cm^2 was submitted to an analytical assay in a quartz plate, in the wavelength range from 320 to 360 nm, in order to verify the area of UV light transmittance (FIG. 7).
This evaluation was performed based in the Australian Method (Perassinoto, N. L.; Journal In Comesto; VII edition; p. 06; 2006), which was elected the most adequate, because it considers the ε of UVA region of absorption. The other methods are based in the 360 and 320 nm absorption ratio and can generate false negative results. According to the Australian Method, it will be a good sunscreen the compound that blocks 90% of UVA light incidence.

[2] = Absorption bands of the cationic radicals; type: physicochemical; conditions: pre-micellic aggregates and micelles
[3] = target: methionine 80 of cytochrome c (Homo sapiens, UniProt P99999); test: Photooxidation of model protein cytochrome c under UV irradiation, measured by dislocation to the blue of the Soret band; type: biochemical; conditions: for initial rate of dislocation to the blue of the Soret band: pH=4.0, 120 min UV (without drug 0.42); for effect on damage to cytochrome c: stabilized cation radicals 25 μM
methionine 80 of cytochrome c (Homo sapiens, UniProt P99999), sequence (P99999 whole entry): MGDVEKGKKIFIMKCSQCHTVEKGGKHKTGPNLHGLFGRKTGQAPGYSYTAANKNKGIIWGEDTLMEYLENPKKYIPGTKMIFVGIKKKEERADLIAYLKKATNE
Protocol: (§1) It was analyzed the effect of the concentration of the phenothiazine derived compounds of the present invention TR (graph A, FIG. 2) and TFP (graph B, FIG. 2), on the photooxidation of the model protein (methionine 80 of cytochrome c), measured by the degree of deviation to the blue of the Soret band.
(§2) The white circle, in A and B, represents the damage caused to the protein after two hours of irradiation under UV light at 254 nm, at temperature of 25° C., at pH 4.
(§3) The effect of the media pH on the initial velocity of oxidation of methionine 80 of cytochrome c was analyzed at an UV irradiation of 254 nm, during 120 min, in the absence and in the presence of the stabilized cation radicals of TR, TFP and FP (FIG. 3). In the presence of the stabilized cation radicals of TR, TFP and FP, de concentration range of 5 to 2500 μM for pH 4.0 and the concentration range of 25 to 2500 μM for the pH range of 3.0 to 7.0 were used.
(§4) Samples containing cytochrome c 3 μM and TR 25 μM were irradiated at 254 nm, in phosphate buffer 5 mM, pH=4.0, at […]., in a cuvette, at 4 cm from a UV lamp of 4 W. The spectrum of cytochrome c and of phenothiazine were obtained before the irradiation (fine solid line of FIG. 4) and after 60 and 120 min of irradiation (dotted line and thick solid line, respectively, of FIG. 4). The spectrum shown in the curves corresponds to the overlapping spectrum changes of the phenothiazines detected during the same indicated time points.
(§5) The experiment described in the Example 4 was repeated for different concentrations of phenothiazines. The initial rate of dislocation to the blue of the Soret band was defined regarding the concentration of phenothiazine.
(§6) The irradiation of the cytochrome c was performed during 120 min, pH=4.0 and under UV lamp of 4 W, which led to the dislocation to the blue of the Soret band from 409 to 406 nm, with initial rate of 0.42 ms^−1 (open circle, FIG. 5).
(§7) Irradiation of the cytochrome c 3 μM was performed, for a pH variation range from 3.0 to 7.0. In this pH range, the phenothiazine remained predominately protonated due to its pKa of 8.1. […] In the said pH range, the initial rate of dislocation to the blue of the Soret band was determined, after 120 min of UV irradiation, in the presence and in the absence of TR (FIG. 6).

[4] = tested on: methionine 80 of cytochrome c; test: as above; type: biochemical; conditions: pH=4.0, 120 min UV (without drug 406 nm)
methionine 80 of cytochrome c, sequence (P99999 whole entry): as above
Protocol: as §1, §2, §3, §4, §5, §6, §7

[5] = two hours UV 254 nm, 25° C., pH 4

Row | SMILES | blockage of the passage of UV light incidence [1] | absorption band of the cationic radical [2] | concentration up to which increasing drug exacerbated the damage (maximum damage) [3, 5] | effect on rate of dislocation to the blue of the Soret band ([3]; 25 μM, pH range from 5.0 to 7.0, 120 min UV) | increase of the initial rate of dislocation to the blue ([3]; 25 μM, pH=3.0) | increase of the initial rate of dislocation to the blue ([3]; 25 μM, pH=4.0) | effect on dislocation rate to the blue ([3]; drug 5 μM, pH=4.0, 120 min UV) | initial rate of dislocation to the blue of the Soret band ([3]; drug 25 μM) | initial rate of dislocation to the blue of the Soret band ([3]; drug 2500 μM) | reduction of the initial rate of dislocation to the blue of the Soret band ([3]; high concentrations, pH=4.0) | effect on damage to cytochrome c ([3]; pH range from 5.0 to 3.0) | effect on damage to cytochrome c ([3]; pH range from 5.0 to 7.0) | effect on photooxidation damage of cytochrome c at very low concentrations [3, 5] | Soret band after irradiation ([4]; drug 25 μM) | Soret band after irradiation ([4]; drug 2500 μM)
1 | CN1CCN(CCCN2c3ccccc3Sc3ccc(C(F)(F)F)cc32)CC1 [TFP, 10-[3-(4-methylpiperazin-1-yl)propyl]-2-(trifluoromethyl)-10H-phenothiazine] | ~100% | 520 nm |  |  |  |  |  |  |  |  |  |  |  |  | 
2 | OCCN1CCN(CCCN2c3ccccc3Sc3ccc(C(F)(F)F)cc32)CC1 [FP, 2-[4-[3-[2-(trifluoromethyl)-10H-phenothiazin-10-yl]propyl]piperazin-1-yl]ethanol] | ~100% | 520 nm | 10 µM |  |  |  |  |  |  |  |  |  |  |  | 
3 | c1ccc2c(c1)Nc1ccccc1S2 [PHT, 10H-phenothiazine] | ~100% |  |  |  |  |  |  |  |  |  |  |  |  |  | 
4 | CSc1ccc2c(c1)N(CCC1CCCCN1C)c1ccccc1S2 (stereo not drawn) [TR, 10-[2-(1-methyl-2-piperidyl)ethyl]-2-methylsulfanyl-phenothiazine] | ~100% | 615 nm | 25 µM | slight reduction | 250% | ~50% | discrete reduction | 0.6 ms^−1 | 0.23 ms^−1 | around 50% | progressively increased the damage | slightly protected | slight protection | 405 nm | 407 nm
